Literature values in patent publication US20160067252A1, “TRANSDERMAL DELIVERY OF SILDENAFIL AND OTHER PHOSPHODIESTERASE TYPE 5 INHIBITORS” (STRATEGIC SCIENCE & TECHNOLOGIES, LLC, priority 2013, published 2016).

| pKa | Compound |
| --- | --- |
| 10.53 | CCCOc1ccc(S(=O)(=O)NCCC2CCCN2C)cc1-c1nc2c(CCC)nn(C)c2c(=O)[nH]1 (stereo not drawn) [udenafil] |
| 6.0 | CCCOc1ccc(S(=O)(=O)N2CCN(CCO)CC2)cc1-c1nc2c(CCC)cn(CC)c2c(=O)[nH]1 [mirodenafil] |

| Compound | pKa |
| --- | --- |
| CN1CC(=O)N2[C@H](c3ccc4c(c3)OCO4)c3[nH]c4ccccc4c3C[C@@H]2C1=O [tadalafil] | 18 |
